Experimental data: patent US20240209022A1, “NOVEL PEPTIDE HAVING ANTI-INFLAMMATORY AND TISSUE REGENERATIVE ACTIONS” (KOREA RESEARCH INSTITUTE OF BIOSCIENCE AND BIOTECHNOLOGY, priority 2020, published 2024)

Experiments:
[1] = system: collagen induced arthritis (CIA) model; test: Collagen induced arthritis (CIA) rheumatoid arthritis model; format: in vivo, DBA/1J mice; details: vs PBS buffer group; for thickness of the ankle joint: at the end of the experiment
[2] = system: depression and anxiety model; test: LPS-induced depression and anxiety model (TST, FST, EPM); format: in vivo, C57BL/6J mice; details: vs PBS buffer group; for immobility time in forced swim test / immobility time in tail suspension test: oral, LPS-induced; for Ifnγ mRNA expression in brain tissue (hippocampus) / Il-10 mRNA expression in brain tissue (hippocampus): RT-qPCR
Experimental: By Daehan Biolink, 7-week-old male C57BL/6J mice weighing 20-22 g were supplied, and the animals were sufficiently supplied with solid feed and water until the day of the experiment, acclimatized for 1 week while maintaining an environment with a temperature of 22° C. 2° C., a humidity of 55%±15%, and a 12-hour light/dark cycle, and then used in the experiment. From 3 days before inducing depression and anxiety, the peptide was dissolved in PBS buffer and orally administered to the mice by 150 μL per animal at the same time once a day. Amuc_1409 or PEP001, PEP002, PEP003, PEP004, or PEP005 was dissolved in PBS buffer at a concentration of 6.7 μM and then used, and novel tetrapeptides PEP006, PEP007, PEP008, PEP009, and PEP010 and novel tripeptides PEP011, PEP012, and PEP013 were each dissolved in PBS buffer at a concentration of 0.2 μg/150 μL and then used. On the 3rd day of peptide administration, lipopolysaccharide (LPS) dissolved in PBS buffer was intraperitoneally injected at a concentration of 0.8 mg/kg to induce depression and anxiety. Tail suspension test (TST) and forced swim test (FST) were conducted to analyze the effect on depression. As the TST, a tail suspension device was installed in an open white acrylic box of 20 cm×25 cm×30 cm size, and the mouse was suspended upside down at a height where the mouse's tail would not touch the floor, and then the time for which the mouse maintained immobility while observing in the same environment was measured for 6 minutes. […] Water at around 25° C. was filled in a transparent acrylic cylinder (45 cm depth×18 cm diameter) up to 30 cm from the bottom, the mouse was exposed to water, and the time for which the mouse maintained immobility while swimming was measured for 6 minutes. […] An elevated plus-maze (EPM) test was performed to analyze the effect on anxiety level. The EPM device consists of two open arms (50 cm×10 cm) and two […] (50 cm×10 cm) at a height of 50 cm from the floor, and the arms are connected by a central area of 10 cm×10 cm. At the start of the experiment, the mouse was placed in the center of the maze and the time for which the mouse stayed in the open arm was measured for a total of 5 minutes using a video camera, and the percentage of time spent in the open arm was calculated and recorded [(time spent in open arm/time spent in open and closed arms)×100]. In addition, in order to examine the anti-inflammatory activity according to the administration of Amuc_1409 and PEP001, PEP002, PEP003, PEP004, and PEP005 in an animal model of depression and anxiety, the expression of Ifnγ and Il-10 mRNA, which are major inflammatory genes related to depression, in brain tissue (hippocampus) was examined.

[3] = system: gastritis/gastric ulcer model; test: HCl/ethanol gastritis/gastric ulcer model; format: in vivo, C57BL/6J mice; details: vs PBS buffer group; for degree of gastric mucosal damage (score): oral, 1 hour after HCl/ethanol; for Cox2 expression in gastric mucosal tissue / Il-1p expression in gastric mucosal tissue / Tnfα mRNA expression in gastric mucosal tissue / iNos mRNA expression in gastric mucosal tissue: RT-qPCR
Experimental: For a gastritis/gastric ulcer model, 7-week-old male C57BL/6J mice were used, and from 3 days before induction, the peptides of the present invention were dissolved in PBS buffer and then orally administered to the mice by 150 μL per animal at the same time once a day. Amuc_1409 or PEP001, PEP002, PEP003, PEP004, or PEP005 was dissolved in PBS buffer at a concentration of 6.7 μM, and novel tetrapeptides PEP006, PEP007, PEP008, PEP009, and PEP010 and novel tripeptides PEP011, PEP012, and PEP013 were each dissolved in PBS buffer at a concentration of 0.15 μg/150 μL (PEP006) or 0.2 μg/150 μL (PEP007, PEP008, PEP009, PEP010, PEP011, PEP012, and PEP013). For the induction of acute gastritis/gastric ulcer, 0.3 M HCl/60% ethanol was orally administered to the mice by 0.2 mL for each, the tissue was harvested after 1 hour, photographs of the inner surface of the stomach were taken, and the degree of damage to the stomach was compared. Measurements of gastritis/gastric ulcer indexes were converted into scores according to the degree of mucosal damage. A score of 0 was given if there was no damage, a score of 1 was given to an insignificant circle-shaped hemorrhagic corrosion site of less than 5 mm, a score of 2 was given to a hemorrhagic corrosion site with a length more than 5 mm, and a score of 3 was given to one or more hemorrhagic corrosion sites corresponding to the score of 2, a score of 4 was given to a hemorrhagic corrosion of more than 5 mm in length and less than 2 mm in width, a score of 5 was given to 2 to 3 hemorrhagic corrosions corresponding to the score of 4, a score of 6 was given to 4 to 5 hemorrhagic corrosions corresponding to the score of 4, a score of 7 was given to 6 or more hemorrhagic corrosions corresponding to the score of 4, and a score of 8 was given if there was hemorrhagic corrosion throughout the gastric mucosa. In order to confirm additional anti-inflammatory activity of the administered peptides, mRNA expression of inflammation-related genes, Tnfα, Il-1β, iNos, Cox2, and Il-10, in the gastric mucosal tissue was examined.

| Substance | thickness of the ankle joint [1] | arthritis index (clinical score by date) [1] | swelling of the hind paws by macrophotography [1] | immobility time in forced swim test [2] | immobility time in tail suspension test [2] | degree of gastric mucosal damage (score) [3] | Ifnγ mRNA expression in brain tissue (hippocampus) [2] | Il-10 mRNA expression in brain tissue (hippocampus) [2] | time spent in the open arm, elevated plus-maze test [2] | Cox2 expression in gastric mucosal tissue [3] | Il-1p expression in gastric mucosal tissue [3] | Tnfα mRNA expression in gastric mucosal tissue [3] | iNos mRNA expression in gastric mucosal tissue [3] |
| --- | --- | --- | --- | --- | --- | --- | --- | --- | --- | --- | --- | --- | --- |
| AIS [PEP013] | tended to decrease | tended to decrease | relieved overall | tended to decrease | decreased | significantly decreased | – | – | – | – | – | – | – |
| AVSSIKGAY (PEP001) | significantly decreased | significantly decreased from day 30 after the first CII injection to the experiment end day | reduced overall | significantly decreased | significantly decreased | significantly decreased | significantly decreased | significantly increased | increased | significantly decreased | significantly decreased | significantly decreased | significantly decreased |
| GAY [PEP005] | significantly decreased | significantly decreased from day 28 after the first CII injection to the experiment end day | reduced overall | significantly decreased | significantly decreased | significantly decreased | significantly decreased | significantly increased | increased | significantly decreased | significantly decreased | significantly decreased | significantly decreased |
| AQS [PEP011] | significantly decreased | significantly decreased from day 30 after the first CII injection to the experiment end day | relieved overall | tended to decrease | decreased | significantly decreased | – | – | – | – | – | – | – |
| VGAY (PEP010) | significantly decreased | significantly decreased from day 30 after the first CII injection to the experiment end day | remarkably improved | tended to decrease | decreased | significantly decreased | – | – | – | – | – | – | – |
| KGAY (PEP003) | significantly decreased | significantly decreased from day 26 after the first CII injection to the experiment end day | reduced overall | significantly decreased | significantly decreased | significantly decreased | significantly decreased | significantly increased | increased | significantly decreased | significantly decreased | significantly decreased | significantly decreased |
| AVSSI (PEP002) | significantly decreased | significantly decreased from day 26 after the first CII injection to the experiment end day | reduced overall | significantly decreased | significantly decreased | significantly decreased | significantly decreased | significantly increased | increased | significantly decreased | significantly decreased | significantly decreased | significantly decreased |
| AVS (AVSSIKGAY) [PEP004] | significantly decreased | significantly decreased from day 32 after the first CII injection to the experiment end day | reduced overall | significantly decreased | significantly decreased | significantly decreased | significantly decreased | significantly increased | increased | significantly decreased | significantly decreased | significantly decreased | significantly decreased |
